Experimental data: the NIST ThermoML archive (doi:10.1021/je3007666)
± gives the expanded uncertainty stated by the source.

Tests used:
[1] = relative permittivity at zero frequency (dimensionless); settings: 100 kPa, Liquid, Dielectrometer
[2] = relative permittivity at zero frequency (dimensionless); xn = mol fraction of the nth substance listed; settings: 100 kPa, Liquid, Dielectrometer

Compound	relative permittivity at zero frequency ([1]; 288.15 K)	relative permittivity at zero frequency ([1]; 293.15 K)	relative permittivity at zero frequency ([1]; 298.15 K)	relative permittivity at zero frequency ([1]; 303.15 K)	relative permittivity at zero frequency ([1]; 308.15 K)	relative permittivity at zero frequency ([2]; 288.15 K, x2 = 0)	relative permittivity at zero frequency ([2]; 293.15 K, x2 = 0)	relative permittivity at zero frequency ([2]; 298.15 K, x2 = 0)	relative permittivity at zero frequency ([2]; 303.15 K, x2 = 0)	relative permittivity at zero frequency ([2]; 308.15 K, x2 = 0)	other results
CC(C)CO [2-methyl-1-propanol]	19.51 ± 0.06	18.71 ± 0.06	17.96 ± 0.06	17.23 ± 0.06	16.53 ± 0.06	–	–	–	–	–	–
CC(C)(C)O [2-methylpropan-2-ol]	14.49 ± 0.06	13.38 ± 0.06	12.49 ± 0.06	11.34 ± 0.06	10.4 ± 0.06	–	–	–	–	–	–
CC(C)(C)O [2-methylpropan-2-ol] + CC(C)CO	–	–	–	–	–	–	–	–	–	–	relative permittivity at zero frequency ([2]; 288.15 K, x1 = 1): 14.49 ± 0.06; relative permittivity at zero frequency ([2]; 293.15 K, x1 = 1): 13.38 ± 0.06; relative permittivity at zero frequency ([2]; 298.15 K, x1 = 1): 12.49 ± 0.06; relative permittivity at zero frequency ([2]; 303.15 K, x1 = 1): 11.34 ± 0.06; relative permittivity at zero frequency ([2]; 308.15 K, x1 = 1): 10.4 ± 0.06
CCCCO [butan-1-ol]	19.01 ± 0.06	18.28 ± 0.06	17.58 ± 0.06	16.91 ± 0.06	16.26 ± 0.06	–	–	–	–	–	–
CCCCO [butan-1-ol] + CC(C)(C)O	–	–	–	–	–	19.01 ± 0.06	18.28 ± 0.06	17.58 ± 0.06	16.91 ± 0.06	16.26 ± 0.06	–
CCCCO [butan-1-ol] + CC(C)CO	–	–	–	–	–	19.01 ± 0.06	18.28 ± 0.06	17.58 ± 0.06	16.91 ± 0.06	16.26 ± 0.06	–
CCCCO [butan-1-ol] + CCC(C)O	–	–	–	–	–	19.01 ± 0.06	18.28 ± 0.06	17.58 ± 0.06	16.91 ± 0.06	16.26 ± 0.06	–
CCC(C)O (stereo not given) [butan-2-ol]	18.47 ± 0.06	17.51 ± 0.06	16.6 ± 0.06	15.75 ± 0.06	14.94 ± 0.06	–	–	–	–	–	–
CCC(C)O (stereo not given) [butan-2-ol] + CC(C)(C)O	–	–	–	–	–	18.47 ± 0.06	17.51 ± 0.06	16.6 ± 0.06	15.75 ± 0.06	14.94 ± 0.06	–
CCC(C)O (stereo not given) [butan-2-ol] + CC(C)CO	–	–	–	–	–	–	–	–	–	–	relative permittivity at zero frequency ([2]; 288.15 K, x1 = 1): 18.47 ± 0.06; relative permittivity at zero frequency ([2]; 293.15 K, x1 = 1): 17.51 ± 0.06; relative permittivity at zero frequency ([2]; 298.15 K, x1 = 1): 16.6 ± 0.06; relative permittivity at zero frequency ([2]; 303.15 K, x1 = 1): 15.75 ± 0.06; relative permittivity at zero frequency ([2]; 308.15 K, x1 = 1): 14.94 ± 0.06
